In PubChem BioAssay AID328 (DTP/NCI, 2004) one finds T/C data, which are given here for 23 compounds.

The subject of this assay is BDF1 mice, P388 leukemia ip, median survival T/C. In words: NCI In Vivo Anticancer Drug Screen. Data for tumor model P388 Leukemia (intraperitoneal) in B6D2F1 (BDF1) mice. The conditions noted are these: endpoint: median survival time, higher = longer survival. The method in brief: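 Transplantable tumour in mice; compound vs vehicle dosing; survival scored; ratio of treated to control reported.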

Where [1] appears, read: dose: 50.0 mg/kg/injection, schedule: Q01DX009 (ip), vehicle: saline.
Setting [2] is: dose: 100.0 mg/kg/injection, schedule: Q01DX009 (ip), vehicle: saline.
[3] abbreviates: dose: 25.0 mg/kg/injection, schedule: Q01DX009 (ip), vehicle: saline.
[4] abbreviates: dose: 25.0 mg/kg/injection, schedule: Q01DX009 (ip), vehicle: Klucel (hydroxypropylcellulose) (HPC).
[5] abbreviates: dose: 100.0 mg/kg/injection, schedule: Q01DX009 (ip), vehicle: Klucel (hydroxypropylcellulose) (HPC).
The mark [6] stands for this setting: dose: 50.0 mg/kg/injection, schedule: Q01DX009 (ip), vehicle: saline with Tween-80.
Where [7] appears, read: dose: 100.0 mg/kg/injection, schedule: Q01DX009 (ip), vehicle: saline with Tween-80.
[8] abbreviates: dose: 200.0 mg/kg/injection, schedule: Q01DX009 (ip), vehicle: saline with Tween-80.
Setting [9] is: dose: 400.0 mg/kg/injection, schedule: Q01DX009 (ip), vehicle: saline with Tween-80.
The mark [10] stands for this setting: dose: 25.0 mg/kg/injection, schedule: Q01DX009 (ip), vehicle: saline with Tween-80.
[11] abbreviates: dose: 100.0 mg/kg/injection, schedule: Q04DX003 (ip), vehicle: saline with Tween-80.
Setting [12] is: dose: 200.0 mg/kg/injection, schedule: Q04DX003 (ip), vehicle: saline with Tween-80.
Setting [13] is: dose: 400.0 mg/kg/injection, schedule: Q04DX003 (ip), vehicle: saline with Tween-80.
The mark [14] stands for this setting: dose: 1.56 mg/kg/injection, schedule: Q01DX009 (ip), vehicle: Klucel (hydroxypropylcellulose) (HPC).
[15] abbreviates: dose: 12.5 mg/kg/injection, schedule: Q01DX009 (ip), vehicle: Klucel (hydroxypropylcellulose) (HPC).
The mark [16] stands for this setting: dose: 100.0 mg/kg/injection, schedule: Q04DX003 (ip), vehicle: saline.
The mark [17] stands for this setting: dose: 200.0 mg/kg/injection, schedule: Q04DX003 (ip), vehicle: saline.
Setting [18] is: dose: 400.0 mg/kg/injection, schedule: Q04DX003 (ip), vehicle: saline.
The mark [19] stands for this setting: dose: 50.0 mg/kg/injection, schedule: Q01DX009 (ip), vehicle: Klucel (hydroxypropylcellulose) (HPC).
[20] abbreviates: dose: 25.0 mg/kg/injection, schedule: Q04DX003 (ip), vehicle: Klucel (hydroxypropylcellulose) (HPC).

“And” between values parts separate entries of the source, which are not always exact repeats. Equal entries are not always repeated. Toxic doses and inconclusive results are not listed.

Regarding `COC(=O)Cc1c[nH]c(=O)[nH]c1=O`, the T/C (dose: 50.0 mg/kg/injection, schedule: Q01DX009 (ip), vehicle: water) was 117 % of control; the T/C (dose: 100.0 mg/kg/injection, schedule: Q01DX009 (ip), vehicle: water) was 102 % of control; the T/C (dose: 100.0 mg/kg/injection, schedule: Q04DX003 (ip), vehicle: water) is 99 % of control; the T/C (dose: 200.0 mg/kg/injection, schedule: Q01DX009 (ip), vehicle: water) is 96 % of control; the T/C (dose: 200.0 mg/kg/injection, schedule: Q04DX003 (ip), vehicle: water) is 94 % of control.
`NC1=NCC(CSc2ccc(Cl)c(Cl)c2)O1` (configuration not stated): the T/C is, setting by setting: (dose: 50.0 mg/kg/injection, schedule: Q04DX002 (ip), vehicle: saline + Tween-80 + alcohol) 95 % of control; (dose: 100.0 mg/kg/injection, schedule: Q04DX002 (ip), vehicle: saline + Tween-80 + alcohol) 101 % of control; (dose: 200.0 mg/kg/injection, schedule: Q04DX002 (ip), vehicle: saline + Tween-80 + alcohol) 95 % of control.
Turning to `CC1=NN(c2ccc(S(=O)(=O)O)cc2)C(=O)/C1=C/c1ccc(Cl)cc1`, the T/C runs as follows: under setting [1], 92 % of control; under setting [2], 90 % of control.
For the compound `CS(=O)(=O)NN`, the T/C is, setting by setting: (dose: 12.5 mg/kg/injection, schedule: Q01DX009 (ip), vehicle: saline) 95 % of control; under setting [3], 95 % of control; (dose: 37.5 mg/kg/injection, schedule: Q04DX003 (ip), vehicle: saline) 100 % of control; under setting [1], 90 % of control; (dose: 75.0 mg/kg/injection, schedule: Q04DX003 (ip), vehicle: saline) 90 % of control.
On to `Nc1c(Br)cc(Br)cc1Br`, for which the T/C reads like this: (dose: 6.0 mg/kg/injection, schedule: Q01DX009 (ip), vehicle: Klucel (hydroxypropylcellulose) (HPC)) 110 % of control; (dose: 12.0 mg/kg/injection, schedule: Q01DX009 (ip), vehicle: Klucel (hydroxypropylcellulose) (HPC)) 105 % of control; under setting [4], 105 % of control; under setting [5], 105 % of control; (dose: 100.0 mg/kg/injection, schedule: Q04DX003 (ip), vehicle: Klucel (hydroxypropylcellulose) (HPC)) 100 % of control; (dose: 200.0 mg/kg/injection, schedule: Q01DX009 (ip), vehicle: Klucel (hydroxypropylcellulose) (HPC)) 100 % of control. Besides, the T/C is 95 % of control (dose: 200.0 mg/kg/injection, schedule: Q04DX003 (ip), vehicle: Klucel (hydroxypropylcellulose) (HPC)); 111 % of control (dose: 400.0 mg/kg/injection, schedule: Q01DX009 (ip), vehicle: Klucel (hydroxypropylcellulose) (HPC)); 100 % of control (dose: 400.0 mg/kg/injection, schedule: Q04DX003 (ip), vehicle: Klucel (hydroxypropylcellulose) (HPC)).
Consider `CC1=CC2OC34COC3CC(OC(=O)C(F)(F)F)C4(C)C2(C)CC1` (configuration not stated), for which the T/C is 110 % of control (dose: 75.0 mg/kg/injection, schedule: Q04DX003 (ip), vehicle: saline with Tween-80) and 117 % of control (dose: 300.0 mg/kg/injection, schedule: Q04DX003 (ip), vehicle: saline with Tween-80).
Take `O=C1c2ccccc2C2CCCC12` (configuration not stated): the T/C is 105 % of control under setting [6], 120 % of control under setting [7] and 112 % of control under setting [8].
On to `O=c1c2ccccc2[nH]c2ccc(Cl)cc12`, for which the T/C reads like this: under setting [7], 97 % of control; under setting [8], 98 % of control; under setting [9], 89 % of control.
In the case of `CC(C)CSc1ncnc2nc[nH]c12`, the T/C was 90 % of control under setting [10]; 100 % of control under setting [6]; 104 % of control and 122 % of control under setting [7]; 104 % of control under setting [11]; 86 % of control under setting [12]; 86 % of control under setting [13].
Consider `Cn1cc(S(C)=O)c(=O)c2ccccc21` (configuration not stated), for which the T/C reads like this: under setting [1], 99 % of control; under setting [2], 99 % of control; (dose: 200.0 mg/kg/injection, schedule: Q01DX009 (ip), vehicle: saline) 111 % of control.
Turning to `CCC[N+](CCC)(CCC)CCC.N#CN=C([SH2+])[SH2+].N#CN=C([SH2+])[SH2+].[Pt+2]`, the T/C (dose: 50.0 mg/kg/injection, schedule: Q04DX003 (ip), vehicle: saline) is 100 % of control.
As for `O=C1c2ccccc2C(=O)N1CCC[P+](c1ccccc1)(c1ccccc1)c1ccccc1`, the T/C was 102 % of control under setting [14] and 151 % of control under setting [15].
Take `C#CC(C)OCC(O)CCl` (configuration not stated): the T/C was 100 % of control under setting [3]; 118 % of control under setting [1]; 109 % of control under setting [2]; 108 % of control under setting [16]; 104 % of control under setting [17]; 108 % of control under setting [18].
In the case of `Cc1ccc(CNc2ccc(I)cc2)cc1`, the T/C is, setting by setting: under setting [11], 105 % of control; under setting [12], 95 % of control; under setting [13], 105 % of control.
Turning to `CCOC(=O)C(C(=O)OCC)C(C)C`, the T/C runs as follows: under setting [16], 105 % of control; under setting [17], 105 % of control; under setting [18], 115 % of control.
With `Cc1ccc(S(=O)(=O)OCCN(CCOS(=O)(=O)c2ccc(C)cc2)c2ccc(N=O)cc2)cc1`, the T/C is, setting by setting: (dose: 66.0 mg/kg/injection, schedule: Q04DX003 (ip), vehicle: saline sonified) 195 % of control; (dose: 100.0 mg/kg/injection, schedule: Q04DX003 (ip), vehicle: saline sonified) 200 % of control; (dose: 150.0 mg/kg/injection, schedule: Q04DX003 (ip), vehicle: saline sonified) 216 % of control.
Regarding `COC1C(O)=C2C(=O)OC(C)(O)/C=C/C=C\C=C/C=C/C(c3ccccc3)NC(=O)/C=C/C=C/C=C/C=C/C2(C)C1O` (configuration not stated), the T/C by setting is: (dose: 0.78 mg/kg/injection, schedule: Q01DX009 (ip), vehicle: Klucel (hydroxypropylcellulose) (HPC)) 88 % of control; under setting [14], 107 % of control; (dose: 3.12 mg/kg/injection, schedule: Q01DX009 (ip), vehicle: Klucel (hydroxypropylcellulose) (HPC)) 107 % of control.
On to `NC(=O)CC(NC(=O)OCc1ccccc1)c1nn[nH]n1` (configuration not stated), for which the T/C is 90 % of control under setting [7], 100 % of control under setting [8] and 95 % of control under setting [9].
Turning to `CC(C)NC(=O)c1ccccc1Sc1ccccc1`, the T/C was 100 % of control under setting [6], 106 % of control under setting [7] and 108 % of control under setting [8].
Turning to `O=C(NC(=O)C(F)(F)C(F)(F)F)Nc1cccc(F)c1`, the T/C under setting [19] was 116 % of control and the T/C under setting [5] was 122 % of control.
For `CCN1CSC(=S)N(CC)C1`, the T/C was 110 % of control under setting [15]; 110 % of control under setting [4]; 109 % of control under setting [10]; 95 % of control under setting [20]; 109 % of control (dose: 37.5 mg/kg/injection, schedule: Q01DX009 (ip), vehicle: saline with Tween-80); 110 % of control under setting [19]. The T/C was 109 % of control under setting [6]; 87 % of control (dose: 50.0 mg/kg/injection, schedule: Q04DX003 (ip), vehicle: Klucel (hydroxypropylcellulose) (HPC)); 119 % of control (dose: 75.0 mg/kg/injection, schedule: Q01DX009 (ip), vehicle: saline with Tween-80); 122 % of control under setting [7].
In the case of `Clc1ccc(C2c3ccccc3C[n+]3ccccc32)cc1` (configuration not stated), the T/C is 113 % of control (dose: 8.75 mg/kg/injection, schedule: Q01DX009 (ip), vehicle: Klucel (hydroxypropylcellulose) (HPC)); 95 % of control (dose: 12.5 mg/kg/injection, schedule: Q04DX003 (ip), vehicle: Klucel (hydroxypropylcellulose) (HPC)); 109 % of control (dose: 17.5 mg/kg/injection, schedule: Q01DX009 (ip), vehicle: Klucel (hydroxypropylcellulose) (HPC)); 91 % of control under setting [20].
For `CC(C)CCC(=O)C(C)C`, the T/C under setting [11] is 91 % of control, the T/C under setting [12] was 100 % of control and the T/C under setting [13] was 95 % of control.
